# Tests used:
# [1] = tested on: soluble guanylate cyclase; test: Luminescence measurement of intracellular cGMP in a cell line expressing the CNG2 channel, a calcium-sensitive photoprotein and soluble guanylate cyclase; assay type: cell-based; settings: dose-dependent; RLUs measured for 1 min; FIG. 2
# Protocol: (§1) The cells are seeded for the measurements on 384-well microtitre plates (MTPs) at 1500 cells per well and on 1536-well MTPs at 250 cells per well. After 1-2 days of growth at 37° C./5% CO2, the cell culture medium (DMEM/F12 containing 10% foetal calf serum) is removed and the cells are charged with coelenterazine (0.8 μg/ml) in calcium-free Tyrode's at 37° C./5% CO2 for 3 h. Subsequently, test substances and appropriate control substances (e.g. SIN-1 or isoprenaline) are added in calcium-free Tyrode's and incubated on the cells for 5-10 min. The extra measurement is then carried out in a light-tight box by adding calcium-containing Tyrode's via a comb (final calcium concentration: 3 mM), with the aid of a charge-coupled device camera.
# Protocol for β-adrenergic receptor: as §1
# To measure the effects of substances directly, the cells are charged with coelenterazine in calcium-containing Tyrode's. The substances are then added within the light-tight box and measurement commences immediately with addition of the substances (FIG. 5).
# If the cells are charged with coelenterazine in calcium-containing Tyrode's, the agonist isoprenaline may also be added directly to the cells within the light-tight box.
"time until luminescence signal is observed after addition of agonist (β-adrenergic receptor; cells charged with coelenterazine in calcium-containing Tyrode's, agonist 10^-6 M added directly within the light-tight box, FIG. 5)","luminescence signal (intracellular cAMP concentration) after activation of the β-adrenergic receptor (β-adrenergic receptor; dose-dependent, 10 min incubation in calcium-free Tyrode's, measurement started by adding calcium, 0, 10^-7 M, 10^-6 M, FIG. 4)",SMILES,luminescence signal (intracellular cGMP concentration) after activation of soluble guanylate cyclase [1]
–,–,[NH-]c1c[n+](N2CCOCC2)no1 [SIN-1],enhanced luminescence signal
within a few seconds,enhanced lumiscence signal,CC(C)NCC(O)c1ccc(O)c(O)c1 (stereo not drawn) [isoprenaline],–
